Each structure is given as a SMILES string. Values after ≈ are worked out from the molar mass of the structure shown. Like-named read-outs stand apart in the source and are kept apart here. Where only a bound is given, the exact number is not on record here.

Data set [1] in a line: Plasma protein binding, ultrafiltration, human plasma. The note with it: read-out: fraction unbound (Fub) in plasma. It counts as in vitro ADME. On the procedure: Cordycepin was spiked into the plasma to give concentrations of 100, 500, 1000 and 5000 ng/mL, and the samples (300 µL) were incubated in the shaking incubator at 250 rpm and 37 °C for 1 h. Following incubation, 100 µL was withdrawn and analysed for Ct. The remaining sample was transferred to a filter device (Amicon Ultra-0.5 Centrifugal Filter Units, MWCO 3000, Merck Millipore, Cork, Ireland) and was centrifuged at 14,000 g for 10 min at room temperature. Filtrate was collected and analysed for Cf. The fraction unbound in plasma (Fub) was calculated by the equation: Cf/Ct × 100 = Fub. Non-specific binding of cordycepin to the filter device was tested at the same concentration range using phosphate buffered saline (PBS) instead of plasma. Experiments were conducted in quadruplicates.
Samples from studies of plasma stability, protein binding, biorelevant solubility and liver microsomal stability were subjected to liquid-liquid extraction and HPLC-UV analysis. To 100 µL of sample, internal standard (2′-deoxyadenosine) was spiked at 10 µg/mL and 300 µL of 0.1 M NaOH was added. Extraction solvent (3 mL) of ethyl acetate-isopropyl alcohol (85:15, v/v) was added and vortex-mixed for 10 min. Samples were then centrifuged at 1160 g for 5 min and the supernatant was transferred and dried under N2 gas. […]

Data set [2] can be described thus: In vivo pharmacokinetics in rats after intravenous or oral cordycepin. Further details: species or system Sprague Dawley rats. The note with it: for AUC(0-t) / C0 / clearance: in vivo; for AUC(0-t) / C0 / AUC0→t/Dose of cordycepin: rat plasma; for AUC(0-t): read-out: AUC0→t of cordycepin; for C0: read-out: C0 of cordycepin; for clearance: read-out: CL of cordycepin (converted). As to the method:
Protocols for the animal experiments in this study were reviewed and approved by the University of Nottingham Ethical Review Committee in accordance with the Animals [Scientific Procedures] Act 1986. Four male Sprague Dawley rats (Charles River Laboratories, UK) of 300–350 g body weight were used. The animals were housed in the Bio Support Unit, University of Nottingham at controlled temperature, 12 h light/dark cycle and free access to food and water. The animals were allowed to acclimatise for at least six days prior to any procedures.
Prior to pharmacokinetic studies, jugular vein cannulation surgery was performed under general anaesthesia (<3% isoflurane inhalation) for blood sampling or intravenous drug administration. Following two nights of recovery from surgery, the animals were intravenously or orally administered with the PBS-based formulation (5.5 mg/mL cordycepin) developed in a previously reported study. The dose was 8 or 20 mg/kg for intravenous administration and 8 or 80 mg/kg for oral administration. […] When whole blood was analysed, an aliquot was withdrawn immediately after mixing with the pretreated pentostatin. Otherwise, the mixture was centrifuged (3000 g, 10 min) to obtain plasma and samples were stored within the storage conditions tested prior to analysis.
(§1) Samples from Caco-2 permeability, in vitro determination of CordyTP formation and in vivo experiments were subjected to protein precipitation followed by LC-MS/MS analysis. To 50 µL of rat plasma sample, 150 µL of internal standard solution (1.67 µg/mL 2-chloroadenosine in methanol) was added. The samples were then vortex-mixed for 10 s and were centrifuged for 3 min at 17949 g. Supernatant (20 µL) was collected and diluted 10-fold with DDW before injection into the LC-MS/MS for analysis of cordycepin and 3′-deoxyinosine. For analysis of CordyTP, the supernatant was filtered using filter tubes mentioned above and injected without dilution. Tissue samples were homogenised using Bullet Blender Gold (Next Advance, Inc., Troy, NY) in methanol (1:3 w/v) and centrifuged for 3 min at 17949 g. The supernatant was filtered and injected for analysis of CordyTP or diluted 10-fold with DDW for analysis of cordycepin and 3′-deoxyinosine. The LC-MS/MS system was a API4000 QTrap (AB Sciex, Warrington, UK) equipped with HPLC setup of SCL10Avp controller, LC10ADvp pump and SILHTC autosampler (Shimadzu, Milton Keynes, UK). Three different methods were utilised for each compound and multiple reaction monitoring parameters of the MS/MS conditions are shown in Table 1. The HPLC conditions including stationary phases and specific mass spectrometry parameters are shown in Supplementary Information 2. The LC-MS/MS method for cordycepin was fully validated in terms of accuracy, precision, sensitivity, selectivity, linearity and sample storage stability in accordance with the Guidance for Industry, Bioanalytical Method Validation, (2018) published by the US FDA (refer to Supplementary Information 3 for validation procedures and results)[53].
Data are presented as mean ± standard deviation (SD). A two-tailed unpaired t-test was applied for assessment of statistical significance of differences between two groups. For three or more groups, the statistical significance was assessed by application of a one-way ANOVA followed by Tukey’s multiple comparisons test. A p-value lower than 0.05 was deemed statistically significant. Statistical analyses were conducted using GraphPad Prism version 7.01 (GraphPad Software, Inc., La Jolla, CA, USA). Pharmacokinetic parameters were obtained by non-compartmental analysis using Phoenix WinNonlin 6.3 software (Pharsight, Mountain View, CA, USA).
For calculation of pharmacokinetic parameters, the plasma concentration-time curve was plotted in a semi-log scale. From the plot, the elimination rate constant (ke) was calculated. Elimination half-life (t1/2) wasthen calculated using the following equation: […]

The next data set can be described thus: Caco-2 permeability. It counts as in vitro ADME. To be noted: human, Caco-2; read-out: apparent permeability coefficient (Papp), A to B. On the procedure:
(§2) Caco-2 permeability assays were conducted following previously reported methods with 21-day maintenance on the Corning 24-well Transwell® (Fisher Scientific, Loughborough, UK)[48]. […] Both directions of apical-to-basolateral and basolateral-to-apical were tested. […] The experiments were conducted in triplicates.
as §1
(In general: Caco-2 monolayers are a common model of the intestinal barrier.)

The next data set has as its system Caco-2 cells. Briefly: Caco-2 permeability. It counts as in vitro ADME. As to the method: as §2, §1
On the set-up of data set [3]: method as in PMID 28560504. To be noted: previously reported; cited from earlier work.
Where [4] appears, read: male, Sprague Dawley, intravenous cordycepin 8 mg/kg.
[5] abbreviates: male, Sprague Dawley, intravenous cordycepin 20 mg/kg.

By fraction unbound is commonly meant the share of the substance not bound to proteins or other matrix. The Papp A→B is the apparent permeability from the apical to the basolateral side of a cell layer. On to `Nc1ncnc2c1ncn2[C@@H]1O[C@H](CO)C[C@H]1O` [cordycepin, 3′-deoxyadenosine], for which the fraction unbound at 1 h in data set [1] was over 0.8. In addition, the AUC(0-t) in data set [2] (setting [4]) was 196 ± 94 ng·h/mL; in data set [2] (setting [5]), 232 ± 106 ng·h/mL. The values for the C0 in data set [2] (setting [4]) and in data set [2] (setting [5]) were 890 ± 576 ng/mL and 12300 ± 8840 ng/mL, respectively. Also, the clearance in data set [2] (male, Sprague Dawley, rat, intravenous cordycepin 8 mg/kg) is 1720 mL/min/kg; in data set [2] (male, Sprague Dawley, rat, intravenous cordycepin 20 mg/kg) it was 1520 mL/min/kg. The blood plasma ratio in data set [2] (male, Sprague Dawley, rat, whole blood and plasma, intravenous, 20 mg/kg, intravenous cordycepin 20 mg/kg) is 0.68 ± 0.27. Moreover, the AUC0→t/Dose of cordycepin in data set [2] (intravenous cordycepin 8 mg/kg) was found to be 25 ± 12 ng·kg·h/mL/mg; in data set [2] (intravenous cordycepin 20 mg/kg), 12 ± 5 ng·kg·h/mL/mg. The “increase of AUC when dose increased from 8 to 20 mg/kg” value in data set [2] (rat, intravenous cordycepin) worked out at 1.18 fold. In addition, the “increase of C0 when dose increased from 8 to 20 mg/kg” value in data set [2] (rat, intravenous cordycepin) is 13.8 fold. The blood/plasma ratio in data set [2] (rat, intravenous cordycepin 20 mg/kg) is listed as under 1. Moreover, in data set [2] (rat, oral cordycepin 8 or 80 mg/kg, any time point, limit of quantification 2 ng/mL), the “cordycepin in plasma after oral administration” value is reported as “not detected in plasma at all”. The apical-to-basolateral permeability (Papp A→B) at 120 min, 200 µM in “Caco-2 permeability” is 0.11 ± 0.01 ×10⁻⁶ cm/s. For the same molecule, the “cordycepin remaining in donor chamber at 120 min” value is “remained stable” with Caco-2 cells (applied to apical side with pentostatin), “significantly degraded” with Caco-2 cells (applied to apical side without pentostatin) and “remained stable” with Caco-2 cells (applied to basolateral side without pentostatin). Besides, in the data set with Caco-2 cells (cordycepin 200 µM without pentostatin, A to B and B to A), the permeation of cordycepin result is reported as “not detected”. For the same molecule, in data set [3], the solubility in water is 5000 ± 100 µg/mL (≈ 19.9 mM).

(Values after PMC6823370, “A novel nucleoside rescue metabolic pathway may be responsible for therapeutic effect of orally administered cordycepin” (Scientific Reports, 2019).)
